From the supplement of paper PMC10307832

Key:
Test in all cases: relative viability (nuclei count vs DMSO), 5 days (fraction); higher = more cells survive
TGX 221 + Tozasertib = compound: CC1=CN2C(=O)C=C(N=C2C(=C1)C(C)NC3=CC=CC=C3)N4CCOCC4 [TGX 221] + Cc1cc(Nc2cc(N3CCN(C)CC3)nc(Sc3ccc(NC(=O)C4CC4)cc3)n2)n[nH]1 [Tozasertib] (partner 0.1 µM)
Outline: (§1)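 Relative viability is defined as nuclei in treated wells over nuclei in vehicle wells. Duplicate plates were run and medians reported. Lung cancer cell lines in 1536-well plates were dosed by pin tool one day after seeding, with one drug or with a fixed anchor-drug dose plus five library-drug doses (not always all listed) in √10 steps, and nuclei were counted after 5 days.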

Ricolinostat + Alpelisib = compound: O=C(CCCCCCNC(=O)c1cnc(N(c2ccccc2)c2ccccc2)nc1)NO [Ricolinostat] + Cc1nc(NC(=O)N2CCC[C@H]2C(N)=O)sc1-c1ccnc(C(C)(C)C(F)(F)F)c1 [Alpelisib] (partner 2 µM)
Outline: as §1

[1] = compound: O=C(CCCCCCNC(=O)c1cnc(N(c2ccccc2)c2ccccc2)nc1)NO [Ricolinostat] + Nc1ncn([C@H]2C[C@H](O)[C@@H](CO)O2)c(=O)n1 [Decitabine] (partner 2 µM)
Outline: as §1

[2] = compound: O=C(CCCCCCNC(=O)c1cnc(N(c2ccccc2)c2ccccc2)nc1)NO [Ricolinostat] + CC(=O)c1c(C)c2cnc(Nc3ccc(N4CCNCC4)cn3)nc2n(C2CCCC2)c1=O [Palbociclib] (partner 0.5 µM)
Outline: as §1

Cell Line	relative viability (TGX 221 + Tozasertib; first compound 0.08 µM)	relative viability (TGX 221 + Tozasertib; first compound 0.253 µM)	relative viability (TGX 221 + Tozasertib; first compound 0.8 µM)	relative viability (TGX 221 + Tozasertib; first compound 2.53 µM)	relative viability (TGX 221 + Tozasertib; first compound 8 µM)	relative viability (Ricolinostat + Alpelisib; first compound 0.253 µM)	relative viability (Ricolinostat + Alpelisib; first compound 0.8 µM)	relative viability (Ricolinostat + Alpelisib; first compound 2.53 µM)	relative viability ([1]; first compound 0.253 µM)	relative viability ([1]; first compound 0.8 µM)	relative viability ([1]; first compound 2.53 µM)	relative viability ([2]; first compound 0.253 µM)	relative viability ([2]; first compound 0.8 µM)	relative viability ([2]; first compound 2.53 µM)	relative viability (Ricolinostat + Alpelisib; first compound 0.08 µM)	relative viability ([1]; first compound 0.08 µM)	relative viability ([2]; first compound 0.08 µM)
NCI-H520	0.469	0.385	0.382	0.304	0.303	0.765	0.954	0.852	0.521	0.513	0.426	0.256	0.262	0.27			
NCI-H647	0.284	0.219	0.312	0.285	0.122	1.09	1.15	0.937	0.317	0.31	0.312	0.338	0.407	0.266	1.16	0.365	0.391
NCI-H650	0.665	0.639	0.665	0.712	0.596	1.18	0.922	0.877	0.301	0.315	0.306	0.356	0.32	0.253		0.312	0.33
NCI-H661	0.348	0.371	0.392	0.358	0.373	0.597	0.642	0.844	0.511	0.581	0.489	0.381	0.415	0.364		0.552	0.426
NCI-H727	0.543	0.64	0.65	0.571	0.542	0.64	0.759	0.502	0.934	0.957	0.952	0.627	0.705	0.683	0.546	0.807	0.645
NCI-H838	0.276	0.257	0.282	0.247	0.192	1.08	1.04	1.08	0.471	0.489	0.539	0.262	0.182	0.235	0.903	0.44	0.202
NCI-H1355	0.541	0.564	0.621	0.483	0.382	0.847	0.795	0.715	0.331	0.36	0.328	0.367	0.31	0.402		0.332	0.373
NCI-H1395	0.712	0.697	0.713	0.603	0.569	1.12	1.13	1.26	0.731	0.652	0.663	0.603	0.662	0.702			
NCI-H1437	0.383	0.406	0.404	0.361	0.311	1.03	0.907	0.722	0.545	0.543	0.467	0.311	0.282	0.227	0.888	0.448	0.357
NCI-H1651	0.602	0.649	0.696	0.566	0.418	0.997	0.917	0.884	0.644	0.56	0.521	0.512	0.512	0.542	0.885	0.466	0.499
NCI-H1666	0.6	0.591	0.6	0.576	0.538	0.895	0.997	0.463	0.764	0.758	0.717	0.664	0.644	0.598	0.938	0.71	0.741
NCI-H1734	0.247	0.247	0.263	0.263	0.271	0.684	0.645	0.721	0.497	0.519	0.47	0.35	0.4	0.389	0.469	0.486	0.343
NCI-H1755	0.522	0.499	0.521	0.538	0.428		0.92	0.902	0.649	0.696	0.665	0.458	0.493	0.453	0.771	0.66	0.463
NCI-H1793	0.311	0.239	0.244	0.16	0.166	0.633	0.698	0.755	0.514	0.56	0.499	0.31	0.281	0.329		0.423	0.306
NCI-H1915	0.399	0.406	0.422	0.389	0.377	1.06	1.01	0.962	0.264	0.245	0.238	0.521	0.474	0.419	1.01	0.276	0.488
NCI-H1944	0.237	0.223	0.241	0.244	0.2	0.783	0.74	0.58	0.37	0.382	0.385	0.307	0.309	0.297	0.649	0.409	0.332
NCI-H1975	0.759	0.685	0.761	0.569	0.382	0.556		0.492	0.394	0.382	0.379	0.607	0.607	0.471	0.582	0.371	0.709

Cell Line	relative viability (TGX 221 + Tozasertib; first compound 0.08 µM)	relative viability (TGX 221 + Tozasertib; first compound 0.253 µM)	relative viability (TGX 221 + Tozasertib; first compound 0.8 µM)	relative viability (TGX 221 + Tozasertib; first compound 2.53 µM)	relative viability (TGX 221 + Tozasertib; first compound 8 µM)	relative viability (Ricolinostat + Alpelisib; first compound 0.253 µM)	relative viability (Ricolinostat + Alpelisib; first compound 0.8 µM)	relative viability (Ricolinostat + Alpelisib; first compound 2.53 µM)	relative viability ([1]; first compound 0.253 µM)	relative viability ([1]; first compound 0.8 µM)	relative viability ([1]; first compound 2.53 µM)	relative viability ([2]; first compound 0.253 µM)	relative viability ([2]; first compound 0.8 µM)	relative viability ([2]; first compound 2.53 µM)	relative viability (Ricolinostat + Alpelisib; first compound 0.08 µM)	relative viability ([1]; first compound 0.08 µM)	relative viability ([2]; first compound 0.08 µM)
NCI-H1993	0.498	0.53	0.553	0.482	0.572	0.76	0.711	0.73	0.588	0.599	0.709	0.67	0.664	0.514	0.619	0.571	0.614
NCI-H2009	0.739	0.714	0.73	0.631	0.436	1.11	1.12	0.923	0.353	0.35	0.373	0.202	0.222	0.296	1.13	0.376	0.164
NCI-H2023	0.332	0.297	0.397	0.302	0.145	0.581	0.614	0.499	0.233	0.227	0.204	0.328	0.42	0.397	0.503	0.234	0.415
NCI-H2085	0.792	0.729	0.598	0.541	0.427	1.04	0.861	0.915	0.51	0.557	0.512	0.461	0.426	0.478			
NCI-H2087	0.254	0.269	0.231	0.217	0.233	1.21	0.949	0.999	0.318	0.24	0.145	0.165	0.178	0.0962	1.14	0.23	0.263
NCI-H2126	0.826	0.886	0.797	0.768	0.756	0.707	0.716	0.628	0.555	0.561	0.481	0.347	0.353	0.363	0.578	0.563	0.347
NCI-H2170	0.658	0.666	0.626	0.731	0.67	0.764	0.862	0.934	0.454	0.452	0.482	0.405	0.385	0.354	0.687	0.471	0.388
NCI-H2347	0.514	0.418	0.538	0.422	0.33	1.01	0.987	0.963	0.664	0.585	0.61	0.371	0.294	0.408	0.889	0.626	0.487
NCI-H2405	0.737	0.771	0.693	0.745	0.697	0.805	0.889	1.08	0.749	0.804	0.797	0.554	0.542	0.571	0.524	0.671	0.517
NCI-H3122	0.368	0.402	0.372	0.34	0.379	0.942	0.785	0.964	0.404	0.443	0.529	0.208	0.186	0.235	0.514	0.388	0.149
PC-3 [JPC-3]	0.822	0.913	0.838	0.856	0.833	0.996	0.948	0.909	0.736	0.757	0.758	0.499	0.518	0.487	0.941	0.766	0.533
PC-14	0.619	0.615	0.631	0.589	0.459	0.903	0.917	0.66	0.19	0.193	0.22	0.478	0.462	0.406	0.821	0.22	0.57
RERF-LC-KJ	0.465	0.555	0.496	0.488	0.382	0.972	0.754	0.766	0.609	0.672	0.618	1.21	1.25	0.902	0.668	0.77	1.02
SK-LU-1	0.346	0.356	0.321	0.343	0.308	0.914	0.84	0.708	0.604	0.638	0.524	0.377	0.377	0.366	0.947	0.607	0.4
SK-MES-1	0.897	0.992	0.916	0.957	0.796	0.761	0.805	0.591	0.384	0.344	0.375	0.308	0.339	0.397	0.541	0.402	0.369
SW 1573	0.175	0.208	0.211	0.165	0.207	0.862	0.751	0.832	0.496	0.546	0.416	0.434	0.337	0.357	0.506	0.487	0.387
UMC-11	0.183	0.195	0.204	0.203	0.194	1.09	0.961	0.856	0.543	0.561	0.417	0.338	0.339	0.295	0.882	0.551	0.368
